Assay results as given in US20230391741A1, “AGAROFURAN COMPOUND, PREPARATION METHOD THEREFOR, AND APPLICATION THEREOF” (BEIJING CHY PHARMACEUTICAL TECHNOLOGY CO, LTD., priority 2021, published 2023).
Where “and” joins values, the source holds several entries; their conditions need not be identical. Equal entries are not always repeated.

Test system: male ICR mice
Assay: Elevated plus maze (EPM) test, intraperitoneal injection
Type: in vivo, mouse
Conditions: for Closed arm number of entries / Closed arm residence time / Open arm number of entries / Open arm residence time / Open arm/closed arm frequency ratio / Open arm/closed arm time ratio: mice, intraperitoneal, 5 min before entering the maze
Description: The active ingredient used in the following pharmacological experiment, the compound shown in Formula (I) of the present application, is the final product in Example 1 of the present application, namely (1R,6S,9R)6,10,10-trimethyl-2-(4,4,4-trifluorobutyl)-11-oxatricyclo [7.2.1.0^1,6]dodec-2-ene (hereinafter referred to as Compound 2). Compound 2 and an excipient PVP (povidone K30) were mixed in an ethanol solution in a mass ratio of 1:15, spin-dried, and prepared into a preparation form of Compound 2 (the following Compound 2 refers to the preparation form of Compound 2). The preparation form of which the active ingredient was 4-butyl-α-agarofuran (BAF for short) was used as a positive drug, a preparation method for this preparation was the same as that of the preparation of Compound 2, and the following BAF refers to this preparation of BAF. PVP was a blank control. In addition, the administration dose was calculated according to a crude drug.
This model is one of the most commonly used animal models in the research of antianxiety drugs. The elevated plus maze is composed of an open arm (30×5×0.5 cm) and an closed arm (30×8×15 cm) that are crossed in a positive cross shape, and the instrument is suspended 50 cm above the ground. Due to the narrowness, suspension, and brightness of the open arm, there may be internal “fear” or conflict in the open arm, and on the contrary, it more complies with the nature of rodents in the closed arm. 5 min after administration, a mouse is placed in the center of the maze, and its head faces to the open arm. Open-arm and closed-arm entries and residence times in both arms during the experimental period (usually 5 min) are recorded respectively. The percentages of the open arm entries and the open arm residence times respectively accounting for the total entries (sum of the open arm and closed arm entries) and the total time (sum of the open arm and closed arm residence times) are calculated, as an indicator for evaluating the anxiety. Generally speaking, a drug is considered to have antianxiety effects in the case that the open arm cumulative residence time is prolonged without reducing the open arm and closed arm entries.
The experiment used male Institute of Cancer Research (ICR) mice (purchased from Beijing Weitong Lihua Experimental Animal Technology Co., Ltd.), the weight was 18-20 g, the mice were randomly divided into 7 groups according to the weight, and there were 13 mice in each group. Grip adaptation training was conducted on the mice before the experiment. Before the experiment, the mice were fasted for 12 hours. It was administered by an intraperitoneal injection mode. 4-butyl-α-agarofuran (BAF for short) was used as a positive drug, and PVP was a blank control. The specific grouping and disposal modes are as follows:
During detection, after intraperitoneal injection of BAF/Compound 2, each mouse was immediately placed in an open animal box and allowed to move freely for 5 min, then the mouse was placed on a central platform of the elevated plus maze, its head faced to a fixed open arm. The detection was started, timed for 5 min, and recorded with a supermaze software by using a camera head. After all the experiments were completed, the residence times (s) of the mice in the open arm and the closed arm, the open arm and closed arm entries, and the time ratios and frequency ratios of the open arm and closed arm entries were recorded with the supermaze software. 1 was added to the number of entry arms with a latency of 0.

How did the “Closed arm number of entries” value (2 mg/kg, 2 mg/kg) turn out when `CCCCC1=CCC[C@@]2(C)CC[C@@H]3C[C@]12OC3(C)C` [BAF, 4-butyl-α-agarofuran, reference compound] was run?
Its value is 10.31 ± 1.13 and 11.22 ± 1.5 and 9.90 ± 1.19.

And the “Closed arm residence time” value (2 mg/kg, 2 mg/kg)?
Its value is 143.9 ± 9.32 s and 148.89 ± 8.27 s and 146.67 ± 7.95 s.

And the “Open arm number of entries” value (2 mg/kg, 2 mg/kg)?
Its value is 8.62 ± 0.92 and 8.78 ± 1.1 and 8.80 ± 1.14.

What about the “Open arm residence time” value (2 mg/kg, 2 mg/kg) of the same compound?
The value was 115.97 ± 9.71 s and 110.32 ± 8.91 s and 110.04 ± 6.30 s.

What about the “Open arm/closed arm frequency ratio” value (2 mg/kg, 2 mg/kg) of the same compound?
Its value is 0.85 ± 0.06 and 0.80 ± 0.07 and 0.89 ± 0.07.

And the “Open arm/closed arm time ratio” value (2 mg/kg, 2 mg/kg)?
Its value is 0.93 ± 0.16 and 0.79 ± 0.12 and 0.80 ± 0.11.

What about the “Closed arm number of entries” value (4 mg/kg, 4 mg/kg) of the same compound?
The value was 9.23 ± 0.57 and 8.89 ± 0.79 and 9.29 ± 0.68.

And the “Closed arm residence time” value (4 mg/kg, 4 mg/kg)?
Its value is 153.35 ± 7.35 s and 162.64 ± 5.96 s and 144.17 ± 12.09 s.

And the “Open arm number of entries” value (4 mg/kg, 4 mg/kg)?
The value was 7.38 ± 0.58 and 6.56 ± 0.4 and 8.29 ± 0.87.

And the “Open arm residence time” value (4 mg/kg, 4 mg/kg)?
The value was 117.29 ± 7.44 s and 106.13 ± 3.91 s and 128.84 ± 11.89 s.

And the “Open arm/closed arm frequency ratio” value (4 mg/kg, 4 mg/kg)?
Its value is 0.82 ± 0.07 and 0.77 ± 0.06 and 0.91 ± 0.09.

And the “Open arm/closed arm time ratio” value (4 mg/kg, 4 mg/kg)?
The value was 0.82 ± 0.11 and 0.66 ± 0.04 and 0.98 ± 0.18.

What about the “Closed arm number of entries” value (8 mg/kg, 8 mg/kg) of the same compound?
Its value is 9.85 ± 0.72 and 9.78 ± 1.00 and 9.60 ± 0.87.

And the “Closed arm residence time” value (8 mg/kg, 8 mg/kg)?
Its value is 162.19 ± 10.92 s and 158.24 ± 14.9 s and 165.34 ± 13.19 s.

And the “Open arm number of entries” value (8 mg/kg, 8 mg/kg)?
The value was 7.69 ± 0.91 and 8.11 ± 1.27 and 7.10 ± 0.95.

What about the “Open arm residence time” value (8 mg/kg, 8 mg/kg) of the same compound?
The value was 110.07 ± 9.77 s and 113.25 ± 12.84 s and 107.74 ± 11.86 s.

What about the “Open arm/closed arm frequency ratio” value (8 mg/kg, 8 mg/kg) of the same compound?
Its value is 0.76 ± 0.05 and 0.76 ± 0.07 and 0.72 ± 0.06.

What about the “Open arm/closed arm time ratio” value (8 mg/kg, 8 mg/kg) of the same compound?
The value was 0.76 ± 0.10 and 0.81 ± 0.13 and 0.74 ± 0.12.

`CC1(C)O[C@]23C[C@H]1CC[C@]2(C)CCC=C3CCCC(F)(F)F` [Compound 2, (1R,6S,9R)6,10,10-trimethyl-2-(4,4,4-trifluorobutyl)-11-oxatricyclo [7.2.1.0^1,6]dodec-2-ene] was tested. Which “Efficacy compared with BAF” value (at both low and medium doses, especially low dose) did it give?
The value was “better efficacy than BAF”.

And the “Efficacy compared with BAF” value (at low doses)?
The value was “better efficacy”.

And the “Antianxiety effects in elevated plus maze” value (intraperitoneal doses of 2.4, 4.8 and 9.6 mg/kg)?
Its value is “significant antianxiety effects”.

What about the “Closed arm number of entries” value (2.4 mg/kg) of the same compound?
Its value is 10.92 ± 0.84.

What about the “Closed arm residence time” value (2.4 mg/kg) of the same compound?
Its value is 112.68 ± 8.68 s.

And the “Open arm number of entries” value (2.4 mg/kg)?
Its value is 9.23 ± 0.47.

And the “Open arm residence time” value (2.4 mg/kg)?
The value was 144.06 ± 8.10 s.

What about the “Open arm/closed arm frequency ratio” value (2.4 mg/kg) of the same compound?
Its value is 0.89 ± 0.06.

What about the “Open arm/closed arm time ratio” value (2.4 mg/kg) of the same compound?
The value was 1.48 ± 0.24.

And the “Closed arm number of entries” value (4.8 mg/kg)?
Its value is 10.00 ± 0.57.

What about the “Closed arm residence time” value (4.8 mg/kg) of the same compound?
Its value is 149.91 ± 8.22 s.

And the “Open arm number of entries” value (4.8 mg/kg)?
Its value is 9.08 ± 0.69.

And the “Open arm residence time” value (4.8 mg/kg)?
Its value is 118.65 ± 6.32 s.

What about the “Open arm/closed arm frequency ratio” value (4.8 mg/kg) of the same compound?
The value was 0.93 ± 0.07.

What about the “Open arm/closed arm time ratio” value (4.8 mg/kg) of the same compound?
The value was 0.86 ± 0.11.

And the “Closed arm number of entries” value (9.6 mg/kg)?
Its value is 9.85 ± 1.08.

And the “Closed arm residence time” value (9.6 mg/kg)?
Its value is 139.13 ± 11.37 s.

And the “Open arm number of entries” value (9.6 mg/kg)?
Its value is 9.31 ± 1.12.

And the “Open arm residence time” value (9.6 mg/kg)?
Its value is 115.0 ± 8.07 s.

What about the “Open arm/closed arm frequency ratio” value (9.6 mg/kg) of the same compound?
The value was 0.99 ± 0.10.

And the “Open arm/closed arm time ratio” value (9.6 mg/kg)?
Its value is 0.93 ± 0.12.
